According to patent US20250281424A1 (New York Blood Center, Inc, priority 2020, published 2025):
Entries after “also recorded” stand apart in the source; their conditions may differ.

What was measured:
human PF4 = target: T1, human PF4 (Homo sapiens, UniProt P02776); test: Inhibition of PF4 tetramer formation (BS3 cross-linking, SDS-PAGE); format: biochemical; conditions: for IC50: read-out: IC50 of PF4 tetramer formation inhibition; for inhibition at 5 µM: 5 μM inhibitor; for inhibition at 10 µM: 10 μM inhibitor (column A)
T1 construct: PF4 is a 70 amino acid, lysine-rich 7.8 kDa platelet-specific protein; made in house; host or cells: Escherichia coli BL21DE3 pLysS (pT7-7) and/or Drosophila S2 cells
T1 sequence (P02776 32-101): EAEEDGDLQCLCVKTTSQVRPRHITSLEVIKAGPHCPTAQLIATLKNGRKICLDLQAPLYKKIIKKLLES
Procedure, shortened: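 Recombinant human wild-type PF4 (E. coli-expressed, heparin-purified), 10 μg/ml in PBS, incubated with compound 15 min at 37° C or 60 min at room temperature, then cross-linked with 0.2 mM BS3 for 30 min at room temperature. Reducing 12% SDS-PAGE; bands quantified as % tetramer, trimer, dimer, monomer versus compound-free control.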

[1] = target: T2, ultra large complexes (ULC) between PF4 tetramers and heparin (Homo sapiens, UniProt P02776); test: Inhibition of formation of ultra large complexes (ULC) of PF4 tetramers and heparin; format: biochemical; conditions: IC50 values are +/−20%
T2 construct: platelet factor 4 which is a 70 amino acid, lysine-rich, 7.8 kDa platelet-specific protein
T2 sequence (P02776 32-101): T1 sequence (P02776 32-101)
Experimental: Since ULCs are formed as part of a dynamic equilibrium between heparin and PF4, dynamic light scattering (DLS) was performed to measure the ability of the exemplified compounds to disrupt preformed ULCs. Samples were analyzed and included PF4 incubated in the absence or presence of unfractionated heparin (UFH) for 20 min at room temperature at PF4 to heparin ratios (PHR) of 1:0 (no heparin), 2:1, and 0.64:1. The samples were then analyzed using photon correlation spectroscopy on a DynaPro® DLS instrument and Dynamics® software (V6.7.6; […]) to obtain correlation function. The results of the DLS analysis indicate the percentage of ULCs and small PF4 particles. Data for the small particles (a population of particles with a mean hydrodynamic diameter of about 1 nm) and data for the large particles (a population of particles with a mean hydrodynamic diameter of about 300 nm) is assessed. Data are expressed as the percent of total intensity from each measurement, the mean of 10 measurements, and representative of two such experiments.
ELISA measurement and gel filtration measurement of ULC inhibition were performed as described in International Patent Publication No. WO2013/142328, which is incorporated herein by reference. Similarly, assays in which heparin concentrations are varied to determine the effect on ULC inhibition were performed as described in that publication.
Certain compounds were evaluated for their ability to inhibit formation of ultra large complexes (ULC) between PF4 tetramers and heparin.

[2] = Cytotoxicity HepG2 (MTS reduction); format: cell-based; conditions: human, HepG2 cells; read-out: Cytotox HepG2 EC50
[3] = Cytotoxicity NIH3T3 (MTS reduction); format: cell-based; conditions: mouse, NIH3T3 cells, 1 hour exposure in the absence of serum, N = 3, read-out: Cytotox NIH3T3 EC50
[4] = Human microsome stability; format: in vitro ADME; conditions: Human microsomes, compound conc = 0.5 μM, n = 1; read-out: Human microsome stability Half life t1/2
Excerpt: (§1) Certain exemplified compounds were examined for ADMET (absorption, distribution, metabolism, excretion and toxicity) profiling using conventional assays with the results shown in the Tables 3A-3C below.

[5] = Mouse microsome stability; format: in vitro ADME; conditions: Mouse microsomes, compound conc = 0.5 μM, n = 1; read-out: Mouse microsome stability Half life t1/2
Excerpt: as §1

human platelets = test: PF4-KKO induced platelet activation, P-selectin, human platelets; format: cell-based; conditions: for PF4-KKO induced platelet activation using P-selectin as a marker: human platelet activation assays, 20 μM and 40 μM (FIGS. 8 and 9)
[6] = system: FcγRIIA transgenic murine platelets; test: PF4-KKO induced platelet activation, P-selectin, FcγRIIA transgenic murine platelets; format: cell-based, mouse; conditions: for normalized P-selectin levels: FIG. 22; for preventing P-selectin expression: FcγRIIA transgenic murine platelets, 50 μM compound, 37.5 μg/ml PF4, 50 μg/ml KKO (FIGS. 14-21)
Experimental: Whole blood was diluted with 1× Tyrode buffer (5 mM N-2-hydroxyethylpiperazine-N′-2-ethanesulfonic acid, 0.1% BSA, 134 mM NaCl, 0.3 mM NaH2PO4, 3 mM KCl, 2 mM MgCl2, 12 mM NaHCO3, 5 mM glucose) with 0.02 U/ml apyrase and 1 μM PGE1 and centrifuged at 100 g for 10 min. Platelet rich plasma (PRP) was carefully removed and centrifuged at 1000 g for 5 min. Platelet pellet was resuspended in Tyrode buffer with 0.02 U/ml apyrase at 2×10^8/ml concentration at 37° C. PF4 antagonists are diluted in Tyrode buffer, and are incubated with 10 μg/ml human PF4 purified protein at room temperature for 30 min. The PF4-drug complex is then incubated with 1×10^8/ml platelets with 1 mM CaCl2, 0.1% BSA at 37° C. for 10 min. 40 μg/ml KKO and 10 μg/ml anti-CD62P (P-selectin) antibodies are added into the reaction. One milliliter ice-cold PBS is added to each reaction after 5 min of incubation. Labelled platelets are then analyzed by a BD Accuri C6 flow cytometer. The results are represented by both the mean fluorescence intensity and by the percentage of positive platelets.
37.5 μg/ml PF4 with/without 50 μM of the exemplified compound incubated with 3×10^7/ml platelets; 50 μg/ml KKO.

[7] = read-out: % inhibition of PF4 tetramer formation at single concentration of inhibitor

inhibition at 30 µM (human PF4; 30 μM inhibitor, read-out: % inhibition of PF4 tetramer formation at single concentration of inhibitor) | IC50 (human PF4) | IC50 [1] | half-life at 0.5 μM [4] | half-life at 0.5 μM [5] | inhibition at 5 µM (human PF4; [7]) | inhibition at 10 µM (human PF4; [7]) | inhibition at 100 µM (human PF4; 100 μM inhibitor, read-out: % inhibition of PF4 tetramer formation at single concentration of inhibitor) | SMILES | EC50 [2] | EC50 at 1 h [3] | PF4-KKO induced platelet activation using P-selectin as a marker (human platelets) | preventing PF4-KKO induced platelet activation using P-selectin as a marker (human platelets; human platelets (FIG. 12)) | normalized P-selectin levels [6] | preventing P-selectin expression [6]
– | 1.06 µM | – | > 180 min | 86.5 min | 60% | 81% | – | O=C(NC1CC1)C1C(=O)c2ccc(S(=O)(=O)c3ccc4c(c3)C(=O)C(C(=O)NC3CC3)C4=O)cc2C1=O (centres unmarked) [Example 34, 5,5′-sulphonylbis(1,3-dioxo-indan-2-carboxylic acid (cyclopropyl)-amide)] | – | – | inhibitory | – | modulate the activity of normalized P-selectin; also recorded: inhibition | efficacy
– | 0.64 µM | – | > 180 min | 52.2 min | 82% | 65% | – | COc1ccccc1NC(=O)C1C(=O)c2ccc(C(=O)c3ccc4c(c3)C(=O)C(C(=O)Nc3ccccc3OC)C4=O)cc2C1=O (centres unmarked) [Example 28, 5,5′-carbonylbis(1,3-dioxo-indan-2-carboxylic acid (2-methoxyphenyl)-amide)] | – | – | inhibitory | – | modulate the activity of normalized P-selectin; also recorded: inhibition | efficacy

Continued, compound first:

SMILES | inhibition at 30 µM (human PF4; 30 μM inhibitor, read-out: % inhibition of PF4 tetramer formation at single concentration of inhibitor) | IC50 (human PF4) | IC50 [1] | half-life at 0.5 μM [4] | half-life at 0.5 μM [5] | inhibition at 5 µM (human PF4; [7]) | inhibition at 10 µM (human PF4; [7]) | inhibition at 100 µM (human PF4; 100 μM inhibitor, read-out: % inhibition of PF4 tetramer formation at single concentration of inhibitor) | EC50 [2] | EC50 at 1 h [3] | PF4-KKO induced platelet activation using P-selectin as a marker (human platelets) | preventing PF4-KKO induced platelet activation using P-selectin as a marker (human platelets; human platelets (FIG. 12)) | normalized P-selectin levels [6] | preventing P-selectin expression [6]
CCCNC(=O)C1C(=O)c2ccc(C(=O)c3ccc4c(c3)C(=O)C(C(=O)NCCC)C4=O)cc2C1=O (centres unmarked) [Example 15, 5,5′-carbonylbis(1,3-dioxo-indan-2-carboxylic acid propylamide)] | 93% | 3 µM | 11 µM | 116 min | 93.8 min | – | – | – | > 1000 µg/mL | > 1000 µg/mL | inhibitory | efficacy | – | –
O=C(c1ccc2c(c1)C(=O)CC2=O)c1ccc2c(c1)C(=O)CC2=O [Example 4, 5,5′-carbonylbis(1h-indene-1,3(2h)-dione)] | – | 4 µM | 3 µM | 4.7 min | 1.7 min | – | – | 96% | > 250 µg/mL | > 250 µg/mL | – | – | – | –
O=C(c1ccc2c(c1)C(=O)C(C(=O)NCCc1ccc(F)cc1)C2=O)c1ccc2c(c1)C(=O)C(C(=O)NCCc1ccc(F)cc1)C2=O (centres unmarked) [Example 22, 5,5′-carbonylbis(1,3-dioxo-indan-2-carboxylic acid (2-(4-fluorophenyl)ethyl)-amide)] | – | 1.87 µM | – | 59.7 min | 47.9 min | 66% | 76% | – | – | – | inhibitory | – | modulate the activity of normalized P-selectin; also recorded: inhibition | efficacy
CC(=O)C1(C(=O)OC(C)(C)C)C(=O)c2ccc(Oc3ccc4c(c3)C(=O)C(C(C)=O)(C(=O)OC(C)(C)C)C4=O)cc2C1=O (centres unmarked) [Example 5, 5-(2-acetyl-2-carbo-t-butoxy-2,3-dihydro-1,3dioxo-1h-inden-6-yloxy)-2-acetyl-2-carbo-t-butoxy-2,3-dihydro-1,3-dioxo-1h-indene] | – | 10.4 µM | 10 µM | – | – | – | – | – | > 3350 µg/mL | > 3350 µg/mL | – | – | – | –
